# Reference: ChEMBL document CHEMBL1135631, “Design and evaluation of affinity labels of functionalized amino acid anticonvulsants” (J Med Chem, 2002)
# Legend:
# [1] = Protective index as the ratio of TD50 value to that of ED50 value in rat.; assay type: functional
# [2] = Protective index as the ratio of TD50 value to that of ED50 value in mice.; assay type: functional
# [3] = Neurologic toxicity using rotarod test in rat after oral administration; assay type: organism-based; details: in vivo
# Rattus norvegicus = assay: Anticonvulsant activity using MES test in rat after oral administration; assay type: functional
# [4] = Neurologic toxicity using rotarod test in mice after intraperitoneal administration; assay type: organism-based; details: mouse, in vivo, ip
# Mus musculus = assay: (§1) Anticonvulsant activity using MES test in mice after intraperitoneal administration; assay type: functional; details: ip
# [5] = biological target: Metabotropic glutamate receptor 1 (Rattus norvegicus) (UniProt P23385); assay: as §1; assay type: functional, organism-based; details: Mus musculus; target entry is the homologue from another species
# Sequence of Metabotropic glutamate receptor 1 (Rattus norvegicus) (P23385 19-1199 limits assumed): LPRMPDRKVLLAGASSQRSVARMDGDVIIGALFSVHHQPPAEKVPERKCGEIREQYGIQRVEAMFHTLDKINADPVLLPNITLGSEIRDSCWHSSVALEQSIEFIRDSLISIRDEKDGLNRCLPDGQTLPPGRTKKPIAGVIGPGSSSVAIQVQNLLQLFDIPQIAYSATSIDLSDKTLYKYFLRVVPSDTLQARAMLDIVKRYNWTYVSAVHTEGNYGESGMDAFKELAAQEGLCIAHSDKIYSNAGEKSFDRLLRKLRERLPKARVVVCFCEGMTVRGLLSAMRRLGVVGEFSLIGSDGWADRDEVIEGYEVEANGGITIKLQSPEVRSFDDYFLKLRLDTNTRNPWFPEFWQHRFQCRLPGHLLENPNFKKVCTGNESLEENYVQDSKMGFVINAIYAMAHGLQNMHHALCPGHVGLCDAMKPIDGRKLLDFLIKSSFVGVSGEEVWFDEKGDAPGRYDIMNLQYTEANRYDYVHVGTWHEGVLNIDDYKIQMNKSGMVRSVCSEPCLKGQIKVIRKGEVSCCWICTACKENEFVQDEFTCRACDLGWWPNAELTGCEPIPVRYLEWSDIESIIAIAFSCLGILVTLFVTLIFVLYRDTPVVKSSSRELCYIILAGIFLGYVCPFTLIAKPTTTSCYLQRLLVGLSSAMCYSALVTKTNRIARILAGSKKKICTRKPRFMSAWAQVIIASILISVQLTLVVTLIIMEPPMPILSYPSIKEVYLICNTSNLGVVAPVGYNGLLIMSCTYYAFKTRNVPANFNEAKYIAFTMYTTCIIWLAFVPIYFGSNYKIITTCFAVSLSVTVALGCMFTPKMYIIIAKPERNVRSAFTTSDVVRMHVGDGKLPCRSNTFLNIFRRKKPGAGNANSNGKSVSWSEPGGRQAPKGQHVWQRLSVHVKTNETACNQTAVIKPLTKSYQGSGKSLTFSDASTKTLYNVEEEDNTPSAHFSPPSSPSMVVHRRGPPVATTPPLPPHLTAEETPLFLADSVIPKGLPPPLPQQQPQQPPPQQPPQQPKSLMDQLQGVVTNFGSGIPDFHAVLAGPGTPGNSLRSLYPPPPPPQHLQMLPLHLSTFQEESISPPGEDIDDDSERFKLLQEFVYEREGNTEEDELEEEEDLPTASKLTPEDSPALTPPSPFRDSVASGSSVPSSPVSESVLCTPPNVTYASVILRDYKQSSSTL
structure (smiles),measurement,setting,value
COC[C@@H](NC(C)=O)C(=O)NCc1ccccc1 [LACOSAMIDE],PI,[1],>128
same,PI,[2],6
same,TD50,[3],> 500 mg/kg
C=CC(=O)NC(COC)C(=O)NCc1ccccc1 (racemic),ED50,Rattus norvegicus,> 30 mg/kg
same,TD50,[4],> 300 mg/kg
same,TD50,[3],> 30 mg/kg
same,ED50,Mus musculus,> 100 mg/kg
COC[C@@H](NC(C)=O)C(=O)NCc1cccc(N=C=S)c1,ED50,Rattus norvegicus,28 mg/kg
same,ED50,[5],74 mg/kg
same,PI,[1],>9
same,PI,[2],1.6
same,TD50,[4],120 mg/kg
same,TD50,[3],> 250 mg/kg
COC[C@H](NC(C)=O)C(=O)NCc1cccc(N=C=S)c1,ED50,Rattus norvegicus,> 150 mg/kg
same,TD50,[4],> 100 mg/kg
same,TD50,[3],> 150 mg/kg
same,ED50,Mus musculus,> 100 mg/kg
COC[C@@H](NC(=O)CBr)C(=O)NCc1ccccc1,TD50,[4],> 30 mg/kg
same,ED50,Mus musculus,> 300 mg/kg
COC[C@H](NC(=O)CBr)C(=O)NCc1ccccc1,TD50,[4],> 30 mg/kg
same,ED50,Mus musculus,> 30 mg/kg
COC[C@@H](NC(C)=O)C(=O)NCc1ccc(N=C=S)cc1,ED50,Rattus norvegicus,4.2 mg/kg
same,PI,[1],>59
same,PI,[2],2
same,TD50,[4],47 mg/kg
same,TD50,[3],> 250 mg/kg
same,ED50,Mus musculus,24 mg/kg
CCC1(c2ccccc2)C(=O)NC(=O)NC1=O [PHENOBARBITAL],ED50,Rattus norvegicus,9.1 mg/kg
same,ED50,Mus musculus,22 mg/kg
COCC(NC(C)=O)C(=O)NCc1ccccc1 (racemic),PI,[1],101
same,PI,[2],5.2
same,TD50,[3],37 mg/kg
CCOCC(NC(C)=O)C(=O)NCc1ccccc1 (racemic),ED50,Mus musculus,17 mg/kg
CC(=O)NC(CCCCN=C=S)C(=O)NCc1ccccc1 (racemic),ED50,Rattus norvegicus,> 30 mg/kg
same,TD50,[4],> 30 mg/kg
same,TD50,[3],> 30 mg/kg
same,ED50,Mus musculus,> 30 mg/kg
CCCC(NC(C)=O)C(=O)NCc1ccccc1 (racemic),ED50,Rattus norvegicus,30 mg/kg
same,PI,[1],>30
same,PI,[2],4.2
same,TD50,[4],160 mg/kg
same,TD50,[3],> 30 mg/kg
same,ED50,Mus musculus,38 mg/kg
CCCC(CCC)C(=O)O [VALPROIC ACID],ED50,Mus musculus,270 mg/kg
O=C1NC(=O)C(c2ccccc2)(c2ccccc2)N1 [PHENYTOIN],ED50,Rattus norvegicus,30 mg/kg
COC[C@H](NC(C)=O)C(=O)NCc1ccc(N=C=S)cc1,ED50,Rattus norvegicus,> 180 mg/kg
same,TD50,[4],> 30 mg/kg
same,TD50,[3],> 30 mg/kg
same,ED50,Mus musculus,> 100 mg/kg
COC[C@H](NC(C)=O)C(=O)NCc1ccccc1,ED50,Rattus norvegicus,> 30 mg/kg
same,TD50,[4],> 300 mg/kg
same,TD50,[3],> 30 mg/kg
